In experiment [1] the target is MCL-1/Bim interaction (recombinant human MCL-1 protein, residues 171-327; biotinylated human Bim peptide, residues 51-76) (Homo sapiens (Human), UniProt Q07820). The experiment is described as follows: MCL-1/Bim Binding AlphaLISA Assay. Conditions: 0.0625 nM 6xHis-Mcl-1 (171-327), 0.0625 nM biotinylated-Bim peptide. In a few lines:
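Compounds first sat 1 h with MCL-1 (171-327, 0.0625 nM), followed by 2 h with biotin-Bim 51-76 (0.0625 nM), then sequential 1 h anti-His acceptor and streptavidin donor bead steps; buffer Hepes pH 7.5 with NaCl, Brij 35, DTT, BSA. AlphaScreen signal converted to % inhibition using DMSO (negative) and protein/peptide-free (positive) controls.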
(Alpha assays give light when donor and acceptor beads are brought close together.)

Another experiment has as its system SKBR3 cells. The experiment is described as follows: SKBR3 Cell Viability Assay (CellTiter Glo). In kind it is cell-based. The settings on record: CellTiter Glo luminescence, read-out: MCL-1 CV SKBR3 EC50. The method, boiled down:
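Viability read as CellTiter Glo luminescence after 72 h of compound exposure at 37° C./5% CO2, using 6,000 SKBR3 cells per well in McCoy 5A with 10% FBS. Percent inhibition scaled between DMSO wells and 10 μM puromycin wells.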
A general note: ATP-based viability assays read luminescence as a measure of living cells.

pEC50, pIC50: −log10 of the molar value. Where two headings read alike, the source gives them in different places.

MCL-1/Bim interaction (recombinant human MCL-1 protein, residues 171-327; biotinylated human Bim peptide, residues 51-76), sequence (Q07820 171-327): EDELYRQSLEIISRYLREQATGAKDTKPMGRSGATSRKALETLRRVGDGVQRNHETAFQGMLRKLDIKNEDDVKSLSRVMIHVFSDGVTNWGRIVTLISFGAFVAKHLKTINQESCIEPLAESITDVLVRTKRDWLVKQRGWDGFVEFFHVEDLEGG

By pIC50 is commonly meant the IC50 on a negative log10 scale, so that one unit is a factor of ten. A word on the pEC50: it is the negative decadic logarithm of the EC50, by convention in mol/L. In the case of `CC[C@H]1C/C=C/[C@H](OC)[C@@H]2CC[C@H]2CN2C[C@@]3(CCCc4cc(Cl)ccc43)COc3ccc(cc32)C(=O)N=[S@](=O)(NC(=O)c2cc3n(c2)CCOC3)C1` [Example 202], in experiment [1], the pIC50 is 10.09. In addition, the pEC50 in the experiment with SKBR3 cells (Homo sapiens, SK-BR-3, 72 h) was 7.04.
The matching figures for `COC1CN(C(=O)N[S@@]2(=O)=NC(=O)c3ccc4c(c3)N(C[C@@H]3CC[C@H]3[C@@H](O)/C=C/C[C@H](C)C2)C[C@@]2(CCCc3cc(Cl)ccc32)CO4)C1` [Example 266]: 10.07 and 7.27.
Taken in the same sequence, the figures for `CO[C@H]1/C=C/CCC[S@@](=O)(NC(=O)CCn2ccc(C)n2)=NC(=O)c2ccc3c(c2)N(C[C@@H]2CC[C@H]21)C[C@@]1(CCCc2cc(Cl)ccc21)CO3` [Example 59] were 10.00 and 6.06.
Take `CO[C@H]1/C=C/C[C@H](C)C[S@@](=O)(NC(=O)[C@H]2Cc3ccccc3CO2)=NC(=O)c2ccc3c(c2)N(C[C@@H]2CC[C@H]21)C[C@@]1(CCCc2cc(Cl)ccc21)CO3` (single isomer, unassigned) [Example 143]: the pIC50 in experiment [1] is 9.76. In the experiment with SKBR3 cells (Homo sapiens, SK-BR-3, 72 h), the pEC50 was 6.66.
Taken in the same sequence, the figures for `COC[C@H]1Cn2cc(C(=O)N[S@@]3(=O)=NC(=O)c4ccc5c(c4)N(C[C@@H]4CC[C@H]4[C@@H](O)/C=C/C[C@H](C)C3)C[C@@]3(CCCc4cc(Cl)ccc43)CO5)cc2CO1` [Example 325] were 10.00 and 7.30.
The matching figures for `COCc1cc(C(=O)N[S@@]2(=O)=NC(=O)c3ccc4c(c3)N(C[C@@H]3CC[C@H]3[C@@H](OC)/C=C/C[C@H](C)C2)C[C@@]2(CCCc3cc(Cl)ccc32)CO4)cn1C` [Example 304]: 9.89 and 7.67.
Taken in the same sequence, the figures for `CO[C@H]1/C=C/C[C@H](C)C[S@@](=O)(NC(=O)N[C@H]2C[C@@H]2C(F)(F)F)=NC(=O)c2ccc3c(c2)N(C[C@@H]2CC[C@H]21)C[C@@]1(CCCc2cc(Cl)ccc21)CO3` [Example 243] were 10.23 and 7.38.
For `COc1nc(OC)c(C(=O)N[S@@]2(=O)=NC(=O)c3ccc4c(c3)N(C[C@@H]3CC[C@H]3[C@@H](OC)/C=C/C[C@H](C)C2)C[C@@]2(CCCc3cc(Cl)ccc32)CO4)c(OC)n1` [Example 459], the pIC50 in experiment [1] is 10.07. The pEC50 in the experiment with SKBR3 cells (Homo sapiens, SK-BR-3, 72 h) was 6.71.
Turning to `CO[C@H]1/C=C/[C@H](OC)[C@H](C)C[S@@](=O)(NC(=O)N[C@H]2CC2C(F)F)=NC(=O)c2ccc3c(c2)N(C[C@@H]2CC[C@H]21)C[C@@]1(CCCc2cc(Cl)ccc21)CO3` (stereo partly drawn) [Example 227], in experiment [1], the pIC50 is 10.12. Also, the pEC50 in the experiment on SKBR3 cells (Homo sapiens, SK-BR-3, 72 h) is 7.67.
The matching figures for `CO[C@H]1/C=C/C[C@H](C)C[S@@](=O)(NC(=O)COC2(C)CCOCC2)=NC(=O)c2ccc3c(c2)N(C[C@@H]2CC[C@H]21)C[C@@]1(CCCc2cc(Cl)ccc21)CO3` [Example 124]: 10.18 and 7.02.
Take `COC1CCN(c2nn(C)cc2C(=O)N[S@@]2(=O)=NC(=O)c3ccc4c(c3)N(C[C@@H]3CC[C@H]3[C@@H](OC)/C=C/C[C@H](C)C2)C[C@@]2(CCCc3cc(Cl)ccc32)CO4)CC1` [Example 380]: the pIC50 in experiment [1] was 8.34. The pEC50 in the experiment with SKBR3 cells (Homo sapiens, SK-BR-3, 72 h) is 5.47.
The matching figures for `COc1nn(C)cc1C(=O)N[S@@]1(=O)=NC(=O)c2ccc3c(c2)N(C[C@@H]2CC[C@H]2[C@@H](OC)CCC[C@H](C)C1)C[C@@]1(CCCc2cc(Cl)ccc21)CO3` [Example 240]: 10.74 and 7.04.
Consider `COCCOC1CN(C(=O)N[S@@]2(=O)=NC(=O)c3ccc4c(c3)N(C[C@@H]3CC[C@H]3[C@@H](OC)/C=C/C[C@H](C)C2)C[C@@]2(CCCc3cc(Cl)ccc32)CO4)C1` [Example 251], for which the pIC50 in experiment [1] is 10.43. The pEC50 with SKBR3 cells (Homo sapiens, SK-BR-3, 72 h) is 7.40.
Taken in the same sequence, the figures for `CCCn1cc(C(=O)N[S@@]2(=O)=NC(=O)c3ccc4c(c3)N(C[C@@H]3CC[C@H]3[C@@H](OC)/C=C/C[C@H](C)C2)C[C@@]2(CCCc3cc(Cl)ccc32)CO4)cn1` [Example 420] were 9.63 and 6.91.
Taken in the same sequence, the figures for `COC[C@H]1C[C@@H]1NC(=O)N[S@@]1(=O)=NC(=O)c2ccc3c(c2)N(C[C@@H]2CC[C@H]2[C@@H](OC)/C=C/C[C@H](C)C1)C[C@@]1(CCCc2cc(Cl)ccc21)CO3` [Example 303] were 10.35 and 7.64.
The matching figures for `CC#CC(=O)N[S@@]1(=O)=NC(=O)c2ccc3c(c2)N(C[C@@H]2CC[C@H]2[C@@H](OC)/C=C/CCC1)C[C@@]1(CCCc2cc(Cl)ccc21)CO3` [Example 33]: 8.54 and 5.13.
For the molecule `COc1nn(C)cc1C(=O)NS1(=O)=NC(=O)c2ccc3c(c2)N(C[C@@H]2CC[C@H]2[C@@H](OC)/C=C/[C@H](OC(=O)CCc2ccccc2)[C@H](C)C1)C[C@@]1(CCCc2cc(Cl)ccc21)CO3` (single isomer, unassigned) [Example 378], the pIC50 in experiment [1] was 8.94. In addition, in the experiment with SKBR3 cells (72 hours), the pEC50 was 5.93.
In the case of `CO[C@H]1/C=C/CCC[S@@](=O)(NC(=O)CCc2csc(C)n2)=NC(=O)c2ccc3c(c2)N(C[C@@H]2CC[C@H]21)C[C@@]1(CCCc2cc(Cl)ccc21)CO3` [Example 99], in experiment [1], the pIC50 is 9.70. Besides, the pEC50 in the experiment with SKBR3 cells (Homo sapiens, SK-BR-3, 72 h) is 5.68.
Regarding `CCC(=O)N[S@]1(=O)=NC(=O)c2ccc3c(c2)N(C[C@@H]2CC[C@H]2[C@@H](OC)/C=C/CC[C@H]1CC)C[C@@]1(CCCc2cc(Cl)ccc21)CO3` [Example 64], the pIC50 in experiment [1] was 8.28. Besides, the pEC50 in the experiment with SKBR3 cells (72 hours) was 5.23.
In the case of `COC[C@H]1C[C@@H](NC(=O)N[S@@]2(=O)=NC(=O)c3ccc4c(c3)N(C[C@@H]3CC[C@H]3[C@@H](OC)/C=C/C[C@H](C)C2)C[C@@]2(CCCc3cc(Cl)ccc32)CO4)C1` [Example 210], in experiment [1], the pIC50 is 10.15. The pEC50 in the experiment with SKBR3 cells (Homo sapiens, SK-BR-3, 72 h) is 7.36.
The matching figures for `CO[C@H]1/C=C/CCC[S@@](=O)(NC(=O)CCn2cncn2)=NC(=O)c2ccc3c(c2)N(C[C@@H]2CC[C@H]21)C[C@@]1(CCCc2cc(Cl)ccc21)CO3` [Example 42]: 10.00 and 5.48.
`CO[C@H]1/C=C/CCC[S@@](=O)(NC(=O)CCc2nnc(C)s2)=NC(=O)c2ccc3c(c2)N(C[C@@H]2CC[C@H]21)C[C@@]1(CCCc2cc(Cl)ccc21)CO3` [Example 102]: the pIC50 in experiment [1] is 9.52. For the same molecule, the pEC50 in the experiment on SKBR3 cells (Homo sapiens, SK-BR-3, 72 h) was 6.05.
The matching figures for `COc1c(C(=O)N[S@@]2(=O)=NC(=O)c3ccc4c(c3)N(C[C@@H]3CC[C@H]3[C@@H](OC)/C=C/C[C@H](C)C2)C[C@@]2(CCCc3cc(Cl)ccc32)CO4)cn2c1C[C@@H](OC)C2` [Example 224]: 9.71 and 7.08.
The matching figures for `COCCOCCO[C@H]1/C=C/[C@H](OC)[C@@H]2CC[C@H]2CN2C[C@@]3(CCCc4cc(Cl)ccc43)COc3ccc(cc32)C(=O)N=[S@](=O)(NC(=O)c2cn(C)nc2OC)C[C@H]1C` [Example 376]: 10.51 and 7.57.
Taken in the same sequence, the figures for `CO[C@H]1/C=C/C[C@H](C)C[S@@](=O)(NC(=O)c2cc3n(c2)C(=O)CCC3)=NC(=O)c2ccc3c(c2)N(C[C@@H]2CC[C@H]21)C[C@@]1(CCCc2cc(Cl)ccc21)CO3` [Example 145] were 10.43 and 6.83.
On to `CCNC(=O)N[S@@]1(=O)=NC(=O)c2ccc3c(c2)N(C[C@@H]2CC[C@H]2[C@@H](OC)/C=C/C[C@H](C)C1)C[C@@]1(CCCc2cc(Cl)ccc21)CO3` [Example 421], for which the pIC50 in experiment [1] was 10.09. Also, the pEC50 in the experiment with SKBR3 cells (Homo sapiens, SK-BR-3, 72 h) was 6.82.
Taken in the same sequence, the figures for `CO[C@H]1/C=C/CCC[S@@](=O)(NC(=O)CCc2ccncn2)=NC(=O)c2ccc3c(c2)N(C[C@@H]2CC[C@H]21)C[C@@]1(CCCc2cc(Cl)ccc21)CO3` [Example 38] were 9.70 and 6.55.
Taken in the same sequence, the figures for `CO[C@H]1/C=C/C[C@H](C)C[S@@](=O)(NC(=O)N2CC(N3CCOCC3)C2)=NC(=O)c2ccc3c(c2)N(C[C@@H]2CC[C@H]21)C[C@@]1(CCCc2cc(Cl)ccc21)CO3` [Example 349] were 10.59 and 7.47.
Taken in the same sequence, the figures for `CO[C@H]1/C=C/C[C@H](C)C[S@@](=O)(NC(=O)N2CCN3CCOC[C@H]3C2)=NC(=O)c2ccc3c(c2)N(C[C@@H]2CC[C@H]21)C[C@@]1(CCCc2cc(Cl)ccc21)CO3` [Example 334] were 10.39 and 7.31.
On to `CO[C@H]1/C=C/C[C@H](C)C[S@@](=O)(NC(=O)C2Cc3cccnc3C2)=NC(=O)c2ccc3c(c2)N(C[C@@H]2CC[C@H]21)C[C@@]1(CCCc2cc(Cl)ccc21)CO3` (stereo partly drawn) [Example 412], for which, in experiment [1], the pIC50 is 10.14. The pEC50 with SKBR3 cells (Homo sapiens, SK-BR-3, 72 h) was 6.75.
The matching figures for `CO[C@H]1/C=C/C[C@H](C)C[S@@](=O)(NC(=O)N[C@@H]2C[C@H]2c2ccnn2C)=NC(=O)c2ccc3c(c2)N(C[C@@H]2CC[C@H]21)C[C@@]1(CCCc2cc(Cl)ccc21)CO3` [Example 182]: 9.84 and 6.87.
Taken in the same sequence, the figures for `COC1CCN(C2CN(C(=O)N[S@@]3(=O)=NC(=O)c4ccc5c(c4)N(C[C@@H]4CC[C@H]4[C@@H](OC)/C=C/C[C@H](C)C3)C[C@@]3(CCCc4cc(Cl)ccc43)CO5)C2)CC1` [Example 287] were 10.54 and 7.60.
The matching figures for `CO[C@H]1/C=C/C[C@H](C)C[S@@](=O)(NC(=O)N2C[C@H](OC)[C@H]2C)=NC(=O)c2ccc3c(c2)N(C[C@@H]2CC[C@H]21)C[C@@]1(CCCc2cc(Cl)ccc21)CO3` [Example 250]: 10.54 and 7.35.

Values taken from patent US10703733B2, “MCL-1 inhibitors” (Gilead Sciences, Inc., priority 2018, dated 2020).
